The results in this text go back to patent US20240408183A1, “KYNURENINE AMINOTRANSFERASE AND PRODUCTS THEREOF FOR THE TREATMENT OF INFLAMMATORY BOWEL DISEASES” (Institut National De Recherche Pour L'Agriculture, …, priority 2021, published 2024).

The assay relates to mice submitted to DSS-induced colitis. The experiment in a line: DSS-induced colitis model in mice. The class given is in vivo, mouse (C57BL/6JRj). Conditions: for protection against DSS-induced colitis (body weight loss, DAI, colon length, histological score): FIG. 2, oral administration, n=16-20 mice per group; for protection from colitis: intraperitoneal injection, FIG. 3, n=10 mice per group; for colonic expression of pro-inflammatory cytokines such as IL-1 or IL-17: oral treatment, measured by Nanostring technology, data not shown; for colon length / histological score: day twelve. As for the experimental part: C57BL/6JRj from Janvier lab, 7 weeks old, were housed in our specific pathogen free animal facility at IERP (INRA, Jouy en Josas, France). Five to ten female mice per group were used in all experiment, were maintained in a temperature controlled (23° C.) facility with a strict 12 h light/dark cycles and were given free access to food and water. After one acclimation week, we changed water with DSS 2% (MP Biomedical) during 7 days (day 0 to day 7), and a
recovery period was practiced until day 12 (during 5 days). Body weight loss and DAI (disease activity index) were performed daily. After 12 days the samples were harvested.
Colon distal part (cut in three parts) was harvested at day 12 after DSS model and put directly in PFA (Rothi®—Histofix 4%) during 48 h and transferred in ethanol 70% until the standard pre-fixation automat and paraffin embedded. HES coloration was practiced on 5Im cut.
Data were analyzed using Prism version 7 (Graphpad Software, San Diego, USA). The non-parametric Mann Withney test or the parametric one-way ANOVA tests with multiple Bonferroni's comparison tests were performed. Values are expressed as mean±SEM. Statistical significance was defined at a p-value ****<0.0001, ***<0.001, **<0.01, *<0.05.

Setting [1] is: oral, each day, 8 mg of KYNA / 6 mg of XANA per mouse.
Where [2] appears, read: oral, each day, 8 mg of KYNA / 6 mg of XANA per mouse, measured daily, DSS 2%.

Each structure is given as a SMILES string.

For `O=C(O)c1cc(O)c2cccc(O)c2n1` [XANA, xanthurenic acid], the “protection against DSS-induced colitis (body weight loss, DAI, colon length, histological score)” value is “protect against DSS-induced colitis”; the protection from colitis result is “induces protection similar to that observed when these metabolites are given orally”; the “colonic expression of pro-inflammatory cytokines such as IL-1 or IL-17” value is on record as “reduced”. In addition, under setting [1], the colon length result was “longer” and the histological score entry is “lower”. In addition, the weight loss entry under setting [2] was “anti-inflammatory effect”.

With `O=C(O)c1cc(=O)c2ccccc2[nH]1` [KYNA, kynurenic acid, reference compound], the “protection against DSS-induced colitis (body weight loss, DAI, colon length, histological score)” value is “protect against DSS-induced colitis”; the protection from colitis entry is reported as “induces protection similar to that observed when these metabolites are given orally”; the “colonic expression of pro-inflammatory cytokines such as IL-1 or IL-17” value is on record as “reduced”. For the same compound, under setting [1], the colon length result was “longer” and the histological score result is “lower”. For the same compound, under setting [2], the “activity index of colitis (DAI)” value is recorded as “anti-inflammatory effect” and the weight loss entry is on record as “anti-inflammatory effect”.
